System: MDA-MB-231 multicell spheroids, viability
Assay: Anticancer human tumor MDA-MB-231 cell line growth inhibition [PI3K];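 further: spheroids exposed to agents for seven days before reading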;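 on viability, T/C: percent of vehicle control luminescence with DMSO treated spheroids as 100%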
Details: for IC50: curve of first compound; for viability, T/C: stronger effect = lower value; active means viability on the fitted dose curve at most 10% of control; inactive means the rest
Source text: Combinatorial screen of targeted agents with the PI3K inhibitors inavolisib, alpelisib, duvelisib, and copanlisib in multi-cell type tumor spheroids
A high-throughput screen of multi-cell type tumor spheroids was designed to identify active combinations of targeted small molecules and PI3K pathway inhibitors. Complex spheroids include a stromal component modeled by human endothelial cells (HUVEC) and fibroblasts modeled by human mesenchymal stem cells (MSCs). The concentration ranges selected for each drug and investigational agent were based upon clinically achievable concentrations if the clinical Cmax of the agent was known.
Compounds. The drugs and investigational agents: inavolisib (NSC800729), alpelisib (NSC765974), duvelisib (NSC772469), copanlisib (NSC816437), ipatasertib (NSC767898), afuresertib (NSC778305), talazoparib (NSC767125), sapanisertib (NSC764658), selumetinib (NSC741078), tovorafenib (DAY101, NSC766906), vemurafenib (NSC761431), ravoxertinib (NSC781343), sotorasib (NSC818433), MRTX1133 (NSC 836407), abemaciclib (NSC 768073), palbociclib (NSC758247), venetoclax (NSC 766270), SY5609 (NSC837396), enzalutamide (NSC755605), and darolutamide (NSC825331), were obtained from the National Cancer Institute (NCI) Developmental Therapeutics Program Chemical Repository. The FDA-approved anticancer drug set is available from the NCI Developmental Therapeutics Program. […] The stock solutions were prepared in dimethyl sulfoxide (DMSO, Sigma-Aldrich, St. Louis, MO, cat. D2650) at 800-fold the tested concentration and stored at -70 degrees C prior to their use. All drugs and investigational agents were tested over a range starting from a high concentration at or near the clinical Cmax and decreasing in half-log increments. If the clinical Cmax for an agent had not been determined, the highest concentration tested was 10 microM.
Cell Culture. All cells were maintained in an incubator at 37 degrees C and 5% CO2 with 95% humidity. The PDC lines were cultured according to standard operating procedures established by the NCI PDMR (https://pdmr.cancer.gov/sops/default.htm). All PDCs were thawed and cultured in Matrigel-coated flasks prepared with a working solution of 1X Ham's F-12 nutrient mix, without supplementation (Invitrogen, Waltham, MA, cat. 11765054), 100 U/mL penicillin-streptomycin (Invitrogen, cat. 15140122), and 2.5% Matrigel (Corning Inc., Corning, NY, cat. 354248) for the first three passages. The 354836-022-R-J1-PDC, 475296-252-R-J1-PDC, and 997726-040-R-J2-PDC lines were cultured in 6A media, which includes advanced DMEM/F-12 (Thermo Fisher Scientific, cat. 12634028), 10 mM HEPES (Thermo Fisher Scientific, cat. 15630080), 1X GlutaMAX supplement (Thermo Fisher Scientific, cat. 35050061), 0.1 mg/mL primocin (InvivoGen, San Diego, CA, cat. ant-pm-2), 10% defined fetal bovine serum, heat inactivated (HyClone Laboratories Inc., Logan, UT, cat. SH30070.03HI), 50% L-WRN conditioned media (ATCC, cat. CRL-3276), 1.25 mM N-Acetyl-L-cysteine (Sigma-Aldrich, cat. A9165), 10 mM nicotinamide (Sigma-Aldrich, cat. N0636), 1X B-27 supplement (Thermo Fisher Scientific, cat. 17504044), 1X N-2 supplement (Thermo Fisher Scientific, cat. 17502048), and 10 microM Y-27632 dihydrochloride (Tocris Bioscience, Bristol, United Kingdom, cat. 1254). The 624824-186-R-J2-PDC line was cultured in 6C/Colon 1B media, which includes all 6A media components plus 50 ng/mL human EGF recombinant protein (Thermo Fisher Scientific, cat. PHG0311). […]

CNC(=O)c1ccc(N2C(=S)N(c3ccc(C#N)c(C(F)(F)F)c3)C(=O)C2(C)C)cc1F + CC(Nc1ccc2c(c1)OCCn1cc(N3C(=O)OCC3C(F)F)nc1-2)C(N)=O
> 10000 nM: IC50 (second compound 0.00316 µM) | IC50 (second compound 0.01 µM) | IC50 (second compound 0.0316 µM) | IC50 (second compound 0.1 µM) | IC50 (second compound 0.316 µM) | IC50 (second compound 1 µM)
inactive: viability, T/C (second compound 0.00316 µM, first compound 0.0316 µM) 104% | viability, T/C (second compound 0.00316 µM, first compound 0.1 µM) 97.8% | viability, T/C (second compound 0.00316 µM, first compound 0.316 µM) 103% | viability, T/C (second compound 0.00316 µM, first compound 1 µM) 98% | viability, T/C (second compound 0.00316 µM, first compound 3.16 µM) 103% | viability, T/C (second compound 0.00316 µM, first compound 10 µM) 76.6% | viability, T/C (second compound 0.01 µM, first compound 0.0316 µM) 87.4% | viability, T/C (second compound 0.01 µM, first compound 0.1 µM) 98% | viability, T/C (second compound 0.01 µM, first compound 0.316 µM) 86.6% | viability, T/C (second compound 0.01 µM, first compound 1 µM) 96% | viability, T/C (second compound 0.01 µM, first compound 3.16 µM) 79.5% | viability, T/C (second compound 0.01 µM, first compound 10 µM) 73% | viability, T/C (second compound 0.0316 µM, first compound 0.0316 µM) 75.6% | viability, T/C (second compound 0.0316 µM, first compound 0.1 µM) 82.5% | viability, T/C (second compound 0.0316 µM, first compound 0.316 µM) 75% | viability, T/C (second compound 0.0316 µM, first compound 1 µM) 77.5% | viability, T/C (second compound 0.0316 µM, first compound 3.16 µM) 77.2% | viability, T/C (second compound 0.0316 µM, first compound 10 µM) 60.8% | viability, T/C (second compound 0.1 µM, first compound 0.0316 µM) 72.8% | viability, T/C (second compound 0.1 µM, first compound 0.1 µM) 71.8% | viability, T/C (second compound 0.1 µM, first compound 0.316 µM) 70.7% | viability, T/C (second compound 0.1 µM, first compound 1 µM) 67.2% | viability, T/C (second compound 0.1 µM, first compound 3.16 µM) 64% | viability, T/C (second compound 0.1 µM, first compound 10 µM) 52.5% | viability, T/C (second compound 0.316 µM, first compound 0.0316 µM) 65.1% | viability, T/C (second compound 0.316 µM, first compound 0.1 µM) 66.2% | viability, T/C (second compound 0.316 µM, first compound 0.316 µM) 62.2% | viability, T/C (second compound 0.316 µM, first compound 1 µM) 66.7% | viability, T/C (second compound 0.316 µM, first compound 3.16 µM) 64.7% | viability, T/C (second compound 0.316 µM, first compound 10 µM) 52.2% | viability, T/C (second compound 1 µM, first compound 0.0316 µM) 55.7% | viability, T/C (second compound 1 µM, first compound 0.1 µM) 62.4% | viability, T/C (second compound 1 µM, first compound 0.316 µM) 62.3% | viability, T/C (second compound 1 µM, first compound 1 µM) 60.4% | viability, T/C (second compound 1 µM, first compound 3.16 µM) 58.5% | viability, T/C (second compound 1 µM, first compound 10 µM) 47.4%

Cn1cnc2c(F)c(Nc3ccc(Br)cc3Cl)c(C(=O)NOCCO)cc21 + CC(Nc1ccc2c(c1)OCCn1cc(N3C(=O)OCC3C(F)F)nc1-2)C(N)=O
< 9.49 nM: IC50 (second compound 0.1 µM) | IC50 (second compound 0.316 µM) | IC50 (second compound 1 µM)
674 nM: IC50 (second compound 0.00316 µM)
34.1 nM: IC50 (second compound 0.0316 µM)
1100 nM: IC50 (second compound 0.01 µM)
inactive: viability, T/C (second compound 0.00316 µM, first compound 0.00949 µM) 67.7% | viability, T/C (second compound 0.00316 µM, first compound 0.03 µM) 60% | viability, T/C (second compound 0.00316 µM, first compound 0.0949 µM) 58.2% | viability, T/C (second compound 0.00316 µM, first compound 0.3 µM) 56.2% | viability, T/C (second compound 0.00316 µM, first compound 0.949 µM) 49.4% | viability, T/C (second compound 0.00316 µM, first compound 3 µM) 32% | viability, T/C (second compound 0.01 µM, first compound 0.00949 µM) 56.8% | viability, T/C (second compound 0.01 µM, first compound 0.03 µM) 56.2% | viability, T/C (second compound 0.01 µM, first compound 0.0949 µM) 54.3% | viability, T/C (second compound 0.01 µM, first compound 0.3 µM) 53.9% | viability, T/C (second compound 0.01 µM, first compound 0.949 µM) 53% | viability, T/C (second compound 0.01 µM, first compound 3 µM) 30.8% | viability, T/C (second compound 0.0316 µM, first compound 0.00949 µM) 56.1% | viability, T/C (second compound 0.0316 µM, first compound 0.03 µM) 48.1% | viability, T/C (second compound 0.0316 µM, first compound 0.0949 µM) 46.1% | viability, T/C (second compound 0.0316 µM, first compound 0.3 µM) 44.8% | viability, T/C (second compound 0.0316 µM, first compound 0.949 µM) 43.2% | viability, T/C (second compound 0.0316 µM, first compound 3 µM) 23% | viability, T/C (second compound 0.1 µM, first compound 0.00949 µM) 50.9% | viability, T/C (second compound 0.1 µM, first compound 0.03 µM) 41.7% | viability, T/C (second compound 0.1 µM, first compound 0.0949 µM) 44% | viability, T/C (second compound 0.1 µM, first compound 0.3 µM) 42.1% | viability, T/C (second compound 0.1 µM, first compound 0.949 µM) 36.3% | viability, T/C (second compound 0.1 µM, first compound 3 µM) 16.7% | viability, T/C (second compound 0.316 µM, first compound 0.00949 µM) 42.5% | viability, T/C (second compound 0.316 µM, first compound 0.03 µM) 42% | viability, T/C (second compound 0.316 µM, first compound 0.0949 µM) 40.5% | viability, T/C (second compound 0.316 µM, first compound 0.3 µM) 39.8% | viability, T/C (second compound 0.316 µM, first compound 0.949 µM) 33.4% | viability, T/C (second compound 0.316 µM, first compound 3 µM) 15.4% | viability, T/C (second compound 1 µM, first compound 0.00949 µM) 41.1% | viability, T/C (second compound 1 µM, first compound 0.03 µM) 35.1% | viability, T/C (second compound 1 µM, first compound 0.0949 µM) 38.4% | viability, T/C (second compound 1 µM, first compound 0.3 µM) 37.7% | viability, T/C (second compound 1 µM, first compound 0.949 µM) 33.9% | viability, T/C (second compound 1 µM, first compound 3 µM) 15.3%
